Measured values as given in article PMC7933930, “Development of a small molecule that corrects misfolding and increases secretion of Z α1‐antitrypsin” (EMBO Molecular Medicine, 2021).

Assays:
Phospholipidosis = experiment: Off‐target panel: Phospholipidosis; type: cell-based; details: Induction (pMEC)
Method: (§1) GSK716 selectivity and PK properties were profiled in order to investigate the suitability of GSK716 for progression into in vivo studies and the potential for taking it forward as a clinical candidate for testing in humans. Since GSK716 results in loss of inhibitory activity of α1‐antitrypsin, the effect of the compound was assessed on other closely related serpins. […] Furthermore, there were no off‐target effects in a panel of assays considered predictive of known safety liabilities that precluded further development of GSK716 (Table EV1).

GABA-A = experiment: Off‐target panel: GABA-A (Barracuda); type: cell-based
Method: as §1

[1] = system: α1‐antitrypsin variants M, S, Baghdad, Z; experiment: Association with α1‐antitrypsin variants M, S, Baghdad and Z (intrinsic tryptophan fluorescence); type: binding, human; details: 10 μM GSK716
Excerpt: Polymerisation of α1‐antitrypsin involves transition through a transient intermediate state known as M*, that is readily populated by the Z variant (Dafforn et al, 1999; Knaupp et al, 2010). The M* conformational ensemble appears to be a distinct species between the native state conformation and that of the final polymer. One of the hallmarks of M* is its recognition by environment‐sensitive fluorescent reporter dyes. Thermal shift assays that make use of the dye SYPRO Orange report the stability of the protein native state against heat‐induced unfolding. […] Native state stability can also be probed by equilibrium unfolding using chemical denaturants, where a peak in bis‐ANS fluorescence corresponds with a maximally populated unfolding intermediate (James & Bottomley, 1998). […] The association of GSK716 induced a marked quenching and blue‐shift of the α1‐antitrypsin intrinsic tryptophan fluorescence spectrum (Fig 4D, inset). The rate of change in fluorescence during association of 10µM GSK716 was proportional to the propensity of α1‐antitrypsin mutants to form polymers in vivo: inert (M), mild (S), moderate (Baghdad) and severe (Z) α1‐antitrypsin (Fig 4D, top and bottom). […]

Dopamine D2 = Dopamine D2 (Homo sapiens, UniProt P14416); experiment: Off‐target panel: Dopamine D2; type: cell-based
Dopamine D2, sequence (P14416 whole entry): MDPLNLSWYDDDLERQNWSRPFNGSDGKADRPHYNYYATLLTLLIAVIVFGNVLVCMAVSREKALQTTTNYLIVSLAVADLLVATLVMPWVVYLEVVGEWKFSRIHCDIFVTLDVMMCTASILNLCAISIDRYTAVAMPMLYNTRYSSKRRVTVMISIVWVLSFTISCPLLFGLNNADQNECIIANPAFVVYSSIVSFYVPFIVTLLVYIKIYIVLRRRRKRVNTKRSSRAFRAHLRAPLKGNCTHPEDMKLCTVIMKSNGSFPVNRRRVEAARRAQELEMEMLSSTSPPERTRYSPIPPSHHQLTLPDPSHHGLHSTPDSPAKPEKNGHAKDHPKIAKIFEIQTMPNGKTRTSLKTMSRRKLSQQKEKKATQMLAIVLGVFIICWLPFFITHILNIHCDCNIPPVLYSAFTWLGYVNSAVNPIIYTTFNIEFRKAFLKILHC
Method: as §1

Adrenergic α1B = Adrenergic α1B (Homo sapiens, UniProt P35368); experiment: Off‐target panel: Adrenergic α1B; type: cell-based
Adrenergic α1B, sequence (P35368 whole entry): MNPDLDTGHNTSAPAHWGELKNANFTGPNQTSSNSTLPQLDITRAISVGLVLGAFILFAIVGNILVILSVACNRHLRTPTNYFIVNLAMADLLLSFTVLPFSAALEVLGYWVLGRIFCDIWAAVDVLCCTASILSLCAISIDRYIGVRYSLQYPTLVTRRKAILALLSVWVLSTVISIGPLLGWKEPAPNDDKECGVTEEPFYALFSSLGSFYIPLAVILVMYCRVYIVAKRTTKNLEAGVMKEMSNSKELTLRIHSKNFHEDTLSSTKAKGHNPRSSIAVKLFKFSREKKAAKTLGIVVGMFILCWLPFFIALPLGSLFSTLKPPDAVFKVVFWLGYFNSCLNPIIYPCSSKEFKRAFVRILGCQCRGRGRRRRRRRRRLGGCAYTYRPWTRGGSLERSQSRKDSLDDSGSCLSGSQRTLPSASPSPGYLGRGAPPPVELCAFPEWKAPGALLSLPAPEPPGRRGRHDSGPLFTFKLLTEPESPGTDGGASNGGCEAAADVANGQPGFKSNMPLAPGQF
Method: as §1

OATP1B1 = OATP1B1 (Homo sapiens, UniProt Q9Y6L6); experiment: Off‐target panel: OATP1B1; type: in vitro ADME; details: Inhibition, read-out: Mean (PXC50)
OATP1B1, sequence (Q9Y6L6 whole entry, species assumed): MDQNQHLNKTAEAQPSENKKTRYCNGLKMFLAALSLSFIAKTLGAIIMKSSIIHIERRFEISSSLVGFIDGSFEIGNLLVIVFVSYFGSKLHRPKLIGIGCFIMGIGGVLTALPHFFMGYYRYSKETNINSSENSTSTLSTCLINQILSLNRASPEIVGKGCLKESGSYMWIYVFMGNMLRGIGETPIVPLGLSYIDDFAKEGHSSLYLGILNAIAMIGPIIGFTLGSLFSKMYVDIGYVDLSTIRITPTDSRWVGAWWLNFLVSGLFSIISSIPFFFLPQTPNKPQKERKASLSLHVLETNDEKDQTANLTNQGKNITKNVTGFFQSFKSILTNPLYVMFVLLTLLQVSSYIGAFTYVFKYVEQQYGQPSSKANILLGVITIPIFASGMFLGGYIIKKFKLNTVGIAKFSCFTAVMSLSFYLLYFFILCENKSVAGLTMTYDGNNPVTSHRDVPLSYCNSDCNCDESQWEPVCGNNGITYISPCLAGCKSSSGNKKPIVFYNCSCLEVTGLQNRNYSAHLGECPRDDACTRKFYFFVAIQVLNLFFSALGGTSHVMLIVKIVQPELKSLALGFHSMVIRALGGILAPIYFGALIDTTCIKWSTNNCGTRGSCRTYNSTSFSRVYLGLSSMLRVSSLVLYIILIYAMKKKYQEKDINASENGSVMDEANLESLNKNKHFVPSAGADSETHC
Method: as §1

CCC[C@@H](NC(=O)c1cccc2c1CC(=O)N2)[C@@H](O)c1cccc(F)c1C [GSK716]
Mean (PXC50): pMEC (Phospholipidosis): pMEC= 5.8 | Mean (PXC50) (GABA-A; Agonist): <4 | Mean (PXC50) (GABA-A; Antagonist): <4 | Mean (PXC50) (GABA-A; Pos Mod): <4 | binding / rate of association across α1‐antitrypsin variants [1]: M < S < Baghdad < Z α1‐antitrypsin | EC50 (Dopamine D2): > 100 µM | IC50 (Dopamine D2): > 100 µM | IC50 (Adrenergic α1B): > 25.1 µM | IC50 (OATP1B1): > 50.1 µM
